Experimental data reported in US20180344680A1, “COMPOSITIONS AND METHODS FOR TREATMENT, AMELIORATION, AND PREVENTION OF DIABETES-RELATED SKIN ULCERS” (THE ARIZONA BOARD OF REGENTS ON BEHALF OF THE UNIVERSITY OF …, priority 2015, published 2018).

System: Ki67
Experiment: Ki67 immunofluorescence in HaCaT cells
Type: cell-based, human
Conditions: HG HaCaT cells; 5 μmol/L SF or 20 μmol/L CA
Procedure: Human immortalized keratinocytes HaCaT were obtained from the Arizona Cancer Center (see, e.g., Boukamp P, et al., J Cell Biol 106:761-771, 1988). Cells were grown in Dulbecco's modified Eagle's medium (DMEM) containing low glucose (LG, 5.5 mmol/L) and 10% fetal bovine serum (FBS) in an incubator at 37° C. with 5% CO2. For the experiments, the cells were starved in serum-free LG DMEM for 24 h, then either maintained in LG DMEM or switched to high glucose (HG, 25 mmol/L) DMEM for 2 days (see, e.g., Zheng H, et al., Diabetes 60:3055-3066, 2011; Lan C C, et al., Br J Dermatol 159:1103-1115, 2008). For the treatments, the cells were dosed with 5 μmol/L SF or 20 μmol/L CA.
siRNA transfections. […]
Reactive oxygen species (ROS) measurement, cell proliferation and apoptosis. ROS were measured in HaCaT cells using DCF. […] Then, 48 h later, the cells were switched into fresh medium containing 10 μg/mL DCF, incubated 30 min, and fluorescence intensity was measured by flow cytometry. The rate of cell proliferation was measured by two methods (see, e.g., Ren D, et al., Proc Natl Acad Sci USA 108:1433-1438, 2011): 1) detection of Ki67 using indirect immunofluorescence as described previously (see, e.g., Lau A, et al., Mol Cell Biol 30:3275-3285, 2010); and 2) using the xCELLigence system (Roche). […]

Structure (SMILES)	Ki67 expression
O=CC=Cc1ccccc1 [CA, Cinnamaldehyde]	could restore some of the Ki67 expression
C[S@@+]([O-])CCCCN=C=S [SF, L-sulforaphane]	could restore some of the Ki67 expression
